Measured values published in US20220363673A1, “5-(Thiophen-2-YL)-1 H-Tetrazole Derivative as BCKDK Inhibitors Useful for Treating Various Diseases” (Pfizer Inc., priority 2019, published 2022).
Counter-ions that a name gives are not always drawn.

Each molecule was assayed against T1, human BCKDK (Homo sapiens, UniProt O14874) (assay: In Vitro FRET (TR-FRET) BCKDK activity assay, phosphorylation of BCKDHE1α-E2 fusion substrate). Settings: geometric mean, two significant figures; 15 μM ATP.
T1 construct: human BCKDK (residues 31-412 of the protein pre-processing); 6xHis (N, cleaved yes); MBP (N, cleaved yes); TEV protease site (ENLYFQG) (N, cleaved yes); made in house; host or cells: BL21(DE3) E. coli, co-expressed with GroEL-GroES
Type: biochemical
Method: BCKDK protein was generated using a pET vector containing from N- to C-terminus: 6×His, MBP, a TEV protease site (ENLYFQG), a biotin acceptor peptide ([…]), and human BCKDK (residues 31-412 of the protein pre-processing). Protein was co-expressed with GroEL-GroES in BL21(DE3) E. coli in LB media, and protein production was induced with 0.5 mM IPTG and 0.5 mg/mL L-arabinose at an OD600 of 1 and grown for 16 h at 26° C. Bacteria were lysed using a Microfluidizer in 100 mM potassium phosphate pH 7.5, 500 mM NaCl, 0.1 mM EDTA, 1% Tween-20, 0.25% Triton X-100, 10% glycerol, 1 mM DTT, and protease inhibitors. MBP-tagged protein was purified by affinity chromatography using amylose resin, and MBP was removed from BCKDK by TEV protease incubation followed by gel filtration chromatography in 50 mM HEPES pH 7.5, 500 mM NaCl, 300 mM L-Arginine, 2 mM MgCl2, 1 mM DTT, and 10% glycerol.
A pET vector containing E. coli LplA was expressed in BL21(DE3) E. coli in LB media, and protein production was induced with 0.75 mM IPTG at an OD600 of 1 and grown for 16 h at 30° C. Bacteria were lysed using a Microfluidizer in 50 mM sodium phosphate buffer pH 7.5, 350 mM NaCl, 1.5 mM MgCl2, and 1 mM DTT. LplA protein was precipitated from clarified lysate with 1 M ammonium sulfate and further purified by gel filtration chromatography in 50 mM sodium phosphate pH 7.5, 350 mM NaCl, 1.5 mM MgCl2, 1 mM DTT, and 10% glycerol.
The BCKDHE1α-E2 fusion substrate was cloned into a pET vector and contained from N- to C-terminus: the lipoyl binding domain of E2 (residues 62-160 pre-processing), a TEV protease site (LENLYFQG), residues 331-345 (pre-processing) from E1α, and 6×His (Tso, S. C. et al., J Biol Chem 2014, 289 (30), 20583-20593). The fusion substrate was expressed in BL21(DE3) E. coli in LB media, and protein production was induced with 0.75 mM IPTG at an OD600 of 1 and grown for 16 h at 30° C. Bacteria were lysed using a Microfluidizer in 50 mM sodium phosphate pH 7.5, 350 mM NaCl, 10 mM imidazole, 10% glycerol, 1 mM DTT, and protease inhibitors. […] For lipoylation, fusion substrate was incubated with LplA at a 10:1 (substrate:LplA) ratio in 20 mM sodium phosphate pH 7.4, 6 mM MgCl2, 4 mM ATP, 2 mM DTT, 3 mM DL-6,8-thioctic acid at 37° C. The reaction was monitored using an Agilent 6530 Q-TOF coupled to an Agilent 1290 UPLC. The final lipoylated fusion substrate was purified by gel filtration chromatography in 50 mM HEPES pH 7.5, 350 mM NaCl, 1.5 mM MgCl2, 1 mM DTT, 10% glycerol.
BCKDK activity was monitored by phosphorylation of a HIS-tagged fusion BCKDHE1α-E2 substrate protein as described above and was detected using a time resolved-fluorescence resonance energy transfer (TR-FRET) assay system. Compounds were spotted into a 384 well plate, and purified human BCKDK protein was added to the plated compound. After incubation, the LBD-linker-E1 phosphorylation sequence was added in the presence of 15 μM ATP. The reaction was terminated with EDTA. Phosphorylated substrate was recognized by the addition of rabbit anti-E1 phospho Ser293 antibodies (Bethyl Laboratories—A304-672A), and the TR-FRET signal was developed by addition of anti-HIS donor molecules (Europium; Perkin Elmer—AD0205, AD0110, AD0111) and anti-Rabbit acceptor molecules (Ulight; Perkin Elmer—TRF502D, TRF502M, TRF502R). Recognition of phosphorylated E1 brought donor and acceptor molecules into close proximity, and excitation at 320 nm caused energy transfer from the Europium donor to the Ulight acceptor dye, which in turn generated light at 665 nm. Signal intensity was proportional to the level of BCKDK-mediated substrate phosphorylation. Reactions were normalized to zero percent effect with DMSO and one hundred percent effect with 600 μM Radicicol, a known BCKDK inhibitor. IC50 curves were generated using ABASE software (IDBS, Boston Mass.).

With `Cc1cc(F)sc1-c1nnn[nH]1` [Example 2, 5-(5-Fluoro-3-methylthiophen-2-yl)-1H-tetrazole] as the molecule, how does the IC50 read?
The IC50 was 3.6 µM.

With `CCc1c(Cl)csc1-c1nnn[nH]1` [Example 3, 5-(4-Chloro-3-ethylthiophen-2-yl)-1H-tetrazole, ammonium salt] as the molecule, how does the IC50 read?
Its IC50 is 1.1 µM.

With `CCc1c(Br)csc1-c1nnn[nH]1` [Example 4, 5-(4-Bromo-3-ethylthiophen-2-yl)-1H-tetrazole, ammonium salt] as the molecule, how does the IC50 read?
Its IC50 is 1.1 µM.

For `FC(F)c1ccsc1-c1nnn[nH]1` [Example 5, 5-[3-(Difluoromethyl)thiophen-2-yl]-1H-tetrazole], which IC50 is on record?
Its IC50 is 2.5 µM.

`FC(F)c1cc(Cl)sc1-c1nnn[nH]1` [Example 6, 5-[5-Chloro-3-(difluoromethyl)thiophen-2-yl]-1H-tetrazole] was tested. Which IC50 did it give?
The IC50 was 1.1 µM.

How did the IC50 turn out when `Clc1ccsc1-c1nnn[nH]1` [Example 7, 5-(3-chlorothiophen-2-yl)-1H-tetrazole] was run?
The IC50 was 11 µM.

Which IC50 does the source give for `Clc1cc(Br)sc1-c1nnn[nH]1` [Example 8, 5-(5-Bromo-3-chlorothiophen-2-yl)-1H-tetrazole] here?
Its IC50 is 3.4 µM.

With `Cc1c(-c2nnn[nH]2)sc(Cl)c1F` [Example 10, 5-(5-Chloro-4-fluoro-3-methylthiophen-2-yl)-1H-tetrazole] as the molecule, how does the IC50 read?
The IC50 was 0.81 µM.

For `Cc1c(-c2nnn[nH]2)sc(Cl)c1Cl` [Example 11, 5-(4,5-Dichloro-3-methylthiophen-2-yl)-1H-tetrazole], which IC50 is on record?
Its IC50 is 1.9 µM.

`Clc1cc(Cl)c(-c2nnn[nH]2)s1` [Example 12, 5-(3,5-Dichlorothiophen-2-yl)-1H-tetrazole, ammonium salt] was tested. Which IC50 did it give?
Its IC50 is 2 µM.

With `CCc1cc(Br)c(-c2nnn[nH]2)s1` [Example 13, 5-(3-Bromo-5-ethylthiophen-2-yl)-1H-tetrazole] as the molecule, how does the IC50 read?
The IC50 was greater than 83 µM.

How did the IC50 turn out when `Cc1cc(Cl)c(-c2nnn[nH]2)s1` [Example 14, 5-(3-chloro-5-methylthiophen-2-yl)-1H-tetrazole] was run?
The IC50 was 2.6 µM.

Which IC50 does the source give for `Oc1cc(Br)sc1-c1nnn[nH]1` [Example 15, 5-bromo-2-(1H-tetrazol-5-yl)thiophene-3-ol] here?
The IC50 was 13 µM.

`COc1cc(Br)sc1-c1nnn[nH]1` [Example 16, 5-(5-bromo-3-methoxythiophen-2-yl)-1H-tetrazole] was tested. Which IC50 did it give?
Its IC50 is 4.5 µM.

Which IC50 does the source give for `Brc1csc(-c2nnn[nH]2)c1Br` [Example 17, 5-(3,4-dibromothiophen-2-yl)-1H-tetrazole] here?
Its IC50 is 6.1 µM.

For `Cc1c(-c2nnn[nH]2)sc(Br)c1Br` [Example 18, 5-(4,5-dibromo-3-methylthiophen-2-yl)-1H-tetrazole], which IC50 is on record?
The IC50 was 4.5 µM.

For `Clc1cc(Br)c(-c2nnn[nH]2)s1` [Example 19, 5-(3-bromo-5-chlorothiophen-2-yl)-1H-tetrazole], which IC50 is on record?
Its IC50 is 4.1 µM.

How did the IC50 turn out when `Cc1cc(C(F)(F)F)sc1-c1nnn[nH]1` [Example 20, 5-[3-methyl-5-(trifluoromethyl)thiophen-2-yl]-1H-tetrazole] was run?
Its IC50 is 3.7 µM.

With `Cc1cc(C(F)F)sc1-c1nnn[nH]1` [Example 21, 5-[5-(difluoromethyl)-3-methylthiophen-2-yl]-1H-tetrazole] as the molecule, how does the IC50 read?
Its IC50 is 3.6 µM.

Which IC50 does the source give for `FC(F)(F)c1ccsc1-c1nnn[nH]1` [Example 22, 5-[3-(trifluoromethyl)thiophen-2-yl]-1H-tetrazole] here?
The IC50 was 11 µM.

For `FC(F)(F)c1cc(Cl)sc1-c1nnn[nH]1` [Example 23, 5-[5-chloro-3-(trifluoromethyl)thiophen-2-yl]-1H-tetrazole], which IC50 is on record?
Its IC50 is 7.2 µM.

Which IC50 does the source give for `COc1ccsc1-c1nnn[nH]1` [Example 24, 5-(3-methoxythiophen-2-yl)-1H-tetrazole] here?
The IC50 was greater than 300 µM.

`CCc1ccsc1-c1nnn[nH]1` [Example 25, 5-(3-ethylthiophen-2-yl)-1H-tetrazole] was tested. Which IC50 did it give?
Its IC50 is 9.8 µM.

How did the IC50 turn out when `c1cc(C2CC2)c(-c2nnn[nH]2)s1` [Example 26, 5-(3-cyclopropylthiophen-2-yl)-1H-tetrazole] was run?
The IC50 was greater than 300 µM.

How did the IC50 turn out when `CCc1cc(Cl)sc1-c1nnn[nH]1` [Example 27, 5-(5-chloro-3-ethylthiophen-2-yl)-1H-tetrazole] was run?
The IC50 was 4 µM.

For `Fc1ccsc1-c1nnn[nH]1` [Example 28, 5-(3-fluorothiophen-2-yl)-1H-tetrazole], which IC50 is on record?
Its IC50 is 16 µM.
